In ChEMBL document CHEMBL1131734, “Synthesis of polyamine derivatives for the preparation of affinity chromatography columns for the search of new Trypanosoma cruzi targets” (Bioorg Med Chem Lett, 1999) one finds IC50 and inhibition data, which are given here for nine compounds.

In one test the target is Trypanothione reductase (Trypanosoma cruzi, UniProt P28593). Description: Inhibitory activity against trypanothione reductase in Trypanosoma cruzi trypomastigotes; NA is not active.
Test [1] concerns Trypanosoma cruzi. Description: Inhibitory activity against Trypanosoma cruzi trypomastigotes. It counts as functional, organism-based.
For test [2], the system named is Trypanosoma cruzi. The experiment in a line: Inhibitory activity against Trypanosoma cruzi trypomastigotes at concentration 12.5 uM. It counts as functional.

Sequence of Trypanothione reductase (P28593 whole entry): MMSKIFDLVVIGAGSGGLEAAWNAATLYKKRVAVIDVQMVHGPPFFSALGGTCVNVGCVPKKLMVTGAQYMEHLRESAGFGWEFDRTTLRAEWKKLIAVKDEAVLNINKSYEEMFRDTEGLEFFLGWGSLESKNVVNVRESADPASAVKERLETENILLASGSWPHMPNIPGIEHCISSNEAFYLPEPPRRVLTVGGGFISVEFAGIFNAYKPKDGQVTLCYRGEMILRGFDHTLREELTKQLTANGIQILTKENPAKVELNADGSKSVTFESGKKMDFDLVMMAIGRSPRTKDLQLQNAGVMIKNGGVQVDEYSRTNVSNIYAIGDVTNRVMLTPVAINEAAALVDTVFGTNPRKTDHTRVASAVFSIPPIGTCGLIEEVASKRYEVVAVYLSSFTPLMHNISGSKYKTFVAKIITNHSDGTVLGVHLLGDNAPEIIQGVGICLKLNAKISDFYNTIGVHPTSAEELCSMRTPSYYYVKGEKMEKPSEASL

For the compound `NCCCCC(N)C(=O)NCC1CCC(CNCCCN2CCN(CCCNCC3CCC(CNC(=O)C(N)CCCCN)CC3)CC2)CC1` (centres undefined), the IC50 (in general, the concentration needed to halve the response being measured) on Trypanothione reductase was “Not Active”; in the test with Trypanosoma cruzi [1], 5 µM.

As for `NCCCCC(N)C(=O)NCC1CCC(CNCCCN2CCN(CCCNCC3CCCCC3)CC2)CC1` (centres undefined), the 50% inhibitory concentration (IC50) entry at Trypanothione reductase is “Not Active”; with Trypanosoma cruzi [1] it was 5 µM.

In the case of `NCCCN1CCN(CCCNCC2CCCCC2)CC1`, the 50% inhibitory concentration (IC50) result against Trypanothione reductase is “Not Active”; in the test with Trypanosoma cruzi [1], 5 µM.

For `NCCCN1CCN(CCCN2C(=O)c3ccccc3C2=O)CC1`, the half-maximal inhibitory concentration (IC50) entry on Trypanothione reductase was “Not Active”; in the test with Trypanosoma cruzi [1] it was 5 µM.

On to `C1CCC(CNCCCN2CCN(CCCNCC3CCCCC3)CC2)CC1`, for which the IC50 result at Trypanothione reductase was “Not Active”; in the test on Trypanosoma cruzi [1] it was 5 µM. In the test with Trypanosoma cruzi [2], the inhibition (as a rule, the share of the control response that was lost under treatment) at 12.5 µM was determined as 90%.

Consider `CC(C)(C)OC(=O)NCCCCC(NC(=O)OC(C)(C)C)C(=O)NCC1CCC(CNCCCN2CCN(CCCNCC3CCC(CNC(=O)C(CCCCNC(=O)OC(C)(C)C)NC(=O)OC(C)(C)C)CC3)CC2)CC1` (centres undefined), for which the IC50 result on Trypanothione reductase was “Not Active”; with Trypanosoma cruzi [1] it was 5 µM.

In the case of `O=C1c2ccccc2C(=O)N1CCCN1CCN(CCCNCC2CCCCC2)CC1`, the values for the IC50 entry on Trypanothione reductase and with Trypanosoma cruzi [1] were “Not Active” and 5 µM, respectively.

For `NCCCN1CCN(CCCN)CC1`, the IC50 result on Trypanothione reductase is “Not Active”; in the test on Trypanosoma cruzi [1] it was 5 µM.

As to `CC(C)(C)OC(=O)NCCCCC(NC(=O)OC(C)(C)C)C(=O)NCC1CCC(CNCCCN2CCN(CCCNCC3CCCCC3)CC2)CC1` (centres undefined), the concentration for half-maximal inhibition (IC50) entry was “Not Active” at Trypanothione reductase and 5 µM in the test with Trypanosoma cruzi [1].
